Experimental findings from the supplement of paper PMC6045584 are described below.

Compound in experiment [1]: C[C@H](CN(C)C)Oc1nc(Nc2cc3cccc(Cl)c3cn2)cnc1C#N
The experiment is described as follows: area under dose-response curve of surviving fraction (unscaled, Aref=0) (surviving fraction x log10(nM)); higher = more resistant. Conditions: exposure time: 5 days; dose range 0.5-1000 nM. An outline of the steps:
(§1)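 Inhibitor was applied to tumour cell lines at eight concentrations (0.5 to 1000 nM) for five days in 384-well plates. Luminescence from CellTiter-Glo, scaled to DMSO-only wells, gave surviving fractions in three screens per line, and these were fitted by 3-parameter logistic regression with the drc R package. The area under the curve is an unscaled activity area. Aref was 0, and dose was on a log10 scale.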

Compound in another experiment: CC/C(=C(\c1ccc(O)cc1)c1ccc(OCCN(C)C)cc1)c1ccccc1 [AFIMOXIFENE]
The experiment is described as above. The note with it: exposure time: 5 days; dose range 0.5-1000 nM. In short, it runs like this: as §1

Compound in a further experiment: Cc1cn(-c2cc(NC(=O)c3ccc(C)c(Nc4nccc(-c5cccnc5)n4)c3)cc(C(F)(F)F)c2)cn1 [NILOTINIB]
Described as above. Conditions: exposure time: 5 days; dose range 0.5-1000 nM. In short, it runs like this: as §1

Compound in another experiment: COc1cc2nccc(Oc3ccc(NC(=O)C4(C(=O)Nc5ccc(F)cc5)CC4)cc3)c2cc1OC [CABOZANTINIB]
The experiment is described as above. The note with it: exposure time: 5 days; dose range 0.5-1000 nM. In short, it runs like this:
as §1

Compound in another experiment: Cc1ccc(NC(=O)c2ccc(CN3CCN(C)CC3)cc2)cc1Nc1nccc(-c2cccnc2)n1 [IMATINIB]
The description is as above. The note with it: exposure time: 5 days; dose range 0.5-1000 nM. In short, it runs like this: as §1

Compound in experiment [2]: T1, Cn1ncnc1[C@H]1c2n[nH]c(=O)c3cc(F)cc(c23)N[C@@H]1c1ccc(F)cc1 [BMN-673]
Described as above. The note with it: exposure time: 5 days; dose range 0.5-1000 nM. In short, it runs like this:
as §1

Compound in experiment [3]: T1, BMN-673
The experiment can be described thus: surviving fraction relative to DMSO-only wells; higher = less growth inhibition. The note with it: exposure time: 5 days. An outline of the steps:
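Lines were retained only if, across three screens, replicate Pearson r was >0.7 and median Z' was >0.3. Viability was measured as CellTiter-Glo luminescence and reported as surviving fraction relative to the median of DMSO-only wells. Readings followed 10 minutes at room temperature, after log-phase tumour cells seeded at 250–500 per well in 384-well plates had been exposed, from 24 hours after seeding, continuously for five days to inhibitors at 0.5, 1, 5, 10, 50, 100, 500 and 1000 nM.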

± gives the standard deviation of the averaged measurements.

For HCC70 BREAST, the “area under dose-response curve” value was found to be 3.06 in experiment [1]; 3.6 with AFIMOXIFENE; 3.93 with NILOTINIB; 3.5 in the experiment with CABOZANTINIB; 3.79 with IMATINIB; 2.62 with BMN-673 [2]. Moreover, the surviving fraction with BMN-673 [3] (0.5 nM) was 1.05 ± 0.11; with BMN-673 [3] (1 nM), 1.05 ± 0.11; with BMN-673 [3] (5 nM), 1.12 ± 0.069; in the experiment with BMN-673 [3] (10 nM) it was 0.977 ± 0.065; with BMN-673 [3] (50 nM), 0.789 ± 0.054; with BMN-673 [3] (100 nM), 0.657 ± 0.074. For the same test system, the figures for the surviving fraction in the experiment with BMN-673 [3] (500 nM) and with BMN-673 [3] (1000 nM) were 0.411 ± 0.1 and 0.341 ± 0.022, respectively.
As for G292 BONE, the “area under dose-response curve” value in experiment [1] came out at 3.2; in the experiment with AFIMOXIFENE, 3.18; with NILOTINIB it was 3.44; with CABOZANTINIB, 3.03; with IMATINIB, 3.31; with BMN-673 [2], 2.57. Moreover, the surviving fraction in the experiment with BMN-673 [3] (0.5 nM) came to 1.02 ± 0.058; with BMN-673 [3] (1 nM), 0.933 ± 0.033; in the experiment with BMN-673 [3] (5 nM), 0.923 ± 0.041; with BMN-673 [3] (10 nM) it was 0.846 ± 0.048; with BMN-673 [3] (50 nM), 0.732 ± 0.045; with BMN-673 [3] (100 nM), 0.698 ± 0.016. The surviving fraction with BMN-673 [3] (500 nM) was 0.54 ± 0.035; in the experiment with BMN-673 [3] (1000 nM) it was 0.459 ± 0.015.
Take HMT3552 BREAST: the “area under dose-response curve” value in experiment [1] turned out to be 2.82; in the experiment with AFIMOXIFENE, 3.53; with NILOTINIB, 3.47; with IMATINIB it was 3.57; with BMN-673 [2], 2.34. In addition, the surviving fraction in the experiment with BMN-673 [3] (0.5 nM) amounted to 1.01 ± 0.064; in the experiment with BMN-673 [3] (1 nM) it was 0.943 ± 0.036; with BMN-673 [3] (5 nM), 0.889 ± 0.047; with BMN-673 [3] (10 nM), 0.775 ± 0.073; with BMN-673 [3] (50 nM), 0.713 ± 0.063; with BMN-673 [3] (100 nM), 0.574 ± 0.01. In addition, the values for the surviving fraction in the experiment with BMN-673 [3] (500 nM) and in the experiment with BMN-673 [3] (1000 nM) were 0.375 ± 0.026 and 0.264 ± 0.0075, respectively.
In the case of CCK81 LARGE INTESTINE, the “area under dose-response curve” value was found to be 2.09 in experiment [1]; 2.84 with AFIMOXIFENE; 2.58 in the experiment with NILOTINIB; 2.42 with CABOZANTINIB; 2.6 with IMATINIB; 2.04 in the experiment with BMN-673 [2]. The surviving fraction was determined as 0.838 ± 0.087 with BMN-673 [3] (0.5 nM); 0.781 ± 0.094 in the experiment with BMN-673 [3] (1 nM); 0.733 ± 0.091 with BMN-673 [3] (5 nM); 0.619 ± 0.092 in the experiment with BMN-673 [3] (10 nM); 0.54 ± 0.034 with BMN-673 [3] (50 nM); 0.552 ± 0.03 with BMN-673 [3] (100 nM). Besides, the surviving fraction is 0.493 ± 0.079 in the experiment with BMN-673 [3] (500 nM) and 0.406 ± 0.058 in the experiment with BMN-673 [3] (1000 nM).
Take HCC38 BREAST: the “area under dose-response curve” value amounted to 2.59 in experiment [1]; 3.66 in the experiment with AFIMOXIFENE; 2.77 with NILOTINIB; 4.07 with CABOZANTINIB; 2 with BMN-673 [2]. The surviving fraction in the experiment with BMN-673 [3] (0.5 nM) stood at 1.06 ± 0.11; with BMN-673 [3] (1 nM), 0.92 ± 0.2; with BMN-673 [3] (5 nM), 0.778 ± 0.14; with BMN-673 [3] (10 nM) it was 0.603 ± 0.11; with BMN-673 [3] (50 nM) it was 0.585 ± 0.084; in the experiment with BMN-673 [3] (100 nM) it was 0.43 ± 0.065. Also, the surviving fraction stood at 0.301 ± 0.046 in the experiment with BMN-673 [3] (500 nM) and 0.253 ± 0.031 with BMN-673 [3] (1000 nM).
For HMLE3 BREAST, the “area under dose-response curve” value is 3.71 with AFIMOXIFENE; 3.97 with NILOTINIB; 3.06 in the experiment with CABOZANTINIB; 3.75 in the experiment with IMATINIB; 2.43 with BMN-673 [2]. Also, the surviving fraction turned out to be 1.08 ± 0.048 with BMN-673 [3] (0.5 nM); 1.11 ± 0.053 with BMN-673 [3] (1 nM); 1 ± 0.2 in the experiment with BMN-673 [3] (5 nM); 0.902 ± 0.1 with BMN-673 [3] (10 nM); 0.644 ± 0.035 with BMN-673 [3] (50 nM); 0.604 ± 0.03 with BMN-673 [3] (100 nM). The results for the surviving fraction with BMN-673 [3] (500 nM) and with BMN-673 [3] (1000 nM) were 0.339 ± 0.056 and 0.277 ± 0.036, respectively.
On to HS578T BREAST, for which the “area under dose-response curve” value in experiment [1] was 2.54; in the experiment with AFIMOXIFENE, 3.68; with NILOTINIB it was 2.81; with CABOZANTINIB it was 3.18; with IMATINIB it was 3.7; with BMN-673 [2], 2.94. Also, the surviving fraction with BMN-673 [3] (0.5 nM) came out at 1.02 ± 0.035; in the experiment with BMN-673 [3] (1 nM), 1.14 ± 0.14; with BMN-673 [3] (5 nM), 1.05 ± 0.091; with BMN-673 [3] (10 nM) it was 0.958 ± 0.12; with BMN-673 [3] (50 nM) it was 0.902 ± 0.075; with BMN-673 [3] (100 nM), 0.841 ± 0.043. In addition, the surviving fraction with BMN-673 [3] (500 nM) turned out to be 0.669 ± 0.076; in the experiment with BMN-673 [3] (1000 nM), 0.61 ± 0.087.
